Measurements: US8846704B2, “Thiopyrimidine-based compounds and uses thereof” (YM Biosciences Austraila Pty Ltd, priority 2007, dated 2014)

What follows are compounds tested against T1, BaF3 TELJAK3 cells (Homo sapiens, UniProt P52333) (assay: Cellular screening, BaF3 TEL:JAK3 cells, Alamar Blue). Conditions: 40 hr, read-out: BafT_J3 IC50_nM.
T1 construct: fused on or other part: TEL (ETV6) N-terminal part, coding nucleotides 1-487, serves as the oligomerising partner; It is fused through a Sal I site to the JAK3 kinase domain and expressed from pTRE2 in BaF3 cells bearing pTET-off; P41212 (Transcription factor ETV6)
T1 sequence (P52333 1-1124): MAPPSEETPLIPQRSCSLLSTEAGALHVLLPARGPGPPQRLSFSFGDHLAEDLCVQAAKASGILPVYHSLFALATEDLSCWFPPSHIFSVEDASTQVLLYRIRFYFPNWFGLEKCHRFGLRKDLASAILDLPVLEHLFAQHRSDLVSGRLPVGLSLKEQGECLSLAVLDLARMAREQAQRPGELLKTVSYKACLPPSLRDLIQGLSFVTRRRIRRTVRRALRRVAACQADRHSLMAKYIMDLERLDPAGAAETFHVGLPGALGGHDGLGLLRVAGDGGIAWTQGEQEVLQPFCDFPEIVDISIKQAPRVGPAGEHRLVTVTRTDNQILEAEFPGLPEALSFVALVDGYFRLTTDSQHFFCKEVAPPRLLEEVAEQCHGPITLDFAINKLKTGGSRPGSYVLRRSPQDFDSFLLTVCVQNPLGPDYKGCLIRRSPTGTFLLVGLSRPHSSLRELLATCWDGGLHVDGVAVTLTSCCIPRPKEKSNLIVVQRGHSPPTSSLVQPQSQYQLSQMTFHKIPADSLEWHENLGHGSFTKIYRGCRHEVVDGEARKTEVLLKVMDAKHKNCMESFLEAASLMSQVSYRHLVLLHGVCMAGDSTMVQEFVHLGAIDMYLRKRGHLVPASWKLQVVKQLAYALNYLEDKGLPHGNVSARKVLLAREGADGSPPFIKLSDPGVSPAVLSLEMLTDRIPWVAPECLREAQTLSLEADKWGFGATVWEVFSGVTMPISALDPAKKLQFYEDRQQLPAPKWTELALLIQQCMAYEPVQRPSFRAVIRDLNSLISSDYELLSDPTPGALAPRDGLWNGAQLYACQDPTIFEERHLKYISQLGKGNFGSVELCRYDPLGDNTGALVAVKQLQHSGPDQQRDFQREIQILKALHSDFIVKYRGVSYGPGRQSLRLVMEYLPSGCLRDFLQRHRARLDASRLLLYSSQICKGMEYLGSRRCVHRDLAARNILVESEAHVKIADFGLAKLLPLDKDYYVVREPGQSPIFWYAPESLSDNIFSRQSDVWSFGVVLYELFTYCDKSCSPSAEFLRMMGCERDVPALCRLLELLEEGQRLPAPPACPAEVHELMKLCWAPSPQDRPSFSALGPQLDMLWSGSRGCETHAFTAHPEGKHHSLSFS
Format: cell-based
In short: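 BaF3 cells carrying pTET-off and a TEL–JAK3 kinase-domain fusion, selected for growth-factor independence, were grown in DMEM with 10% Tet-approved FBS without WEHI 3B medium. Cells were exposed to compounds for 40 h at 37 °C, 5% CO2. Viability was read with Alamar Blue (4–6 h) at 544 nm.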

Structure (SMILES) | GI50 [µM]
C=CC(=O)Nc1cccc(Nc2nccc(SC)n2)c1 [Compound 7, N-(3-(4-(methylthio)pyrimidin-2-ylao)phenyl)acrylamide] | < 5
Cc1cnc(Nc2ccc(N3CCOCC3)cc2)nc1Sc1ccc(N2C(=O)COCC2=O)cc1 [Compound 190, 4-(4-(5-methyl-2-(4-morpholinophenylao)pyrimidin-4-ylthio)phenyl)morpholine-3,5-dione] | > 20
Cc1cnc(Nc2ccc(O)cc2)nc1Sc1ccc(N)cc1 [Compound 191, 4-(4-(4-aophenylthio)-5-methylpyrimidin-2-ylao)phenol] | < 5
Cc1cnc(Nc2cccc(S)c2)nc1Sc1ccc(NC(=O)CCl)cc1 [Compound 195, 2-chloro-N-(4-(2-(3-mercaptophenylao)-5-methylpyrimidin-4-ylthio)phenyl)acetamide] | < 20
Cc1cnc(Nc2ccc(N3CCOCC3)cc2)nc1Sc1ccc(N2CCSCC2=O)cc1 [Compound 197, 4-(4-(5-methyl-2-(4-morpholinophenylao)pyrimidin-4-ylthio)phenyl)thiomorpholin-3-one] | > 20
N#Cc1c(N)ncn1Cc1cccc(Sc2ccnc(Nc3ccc(N4CCOCC4)cc3)n2)c1 [Compound 199, 4-ao-1-(3-(2-(4-morpholinophenylao)pyrimidin-4-ylthio)benzyl)-1H-imiazole-5-carbonitrile] | < 20
N#Cc1ncn(Cc2ccc(Sc3ccnc(Nc4ccc(N5CCOCC5)cc4)n3)cc2)c1N [Compound 202, 5-ao-1-(4-(2-(4-morpholinophenylao)pyrimidin-4-ylthio)benzyl)-1H-imidazole-4-carbonitrile] | < 5
N#Cc1c(N)ncn1Cc1ccc(Sc2ccnc(Nc3ccc(N4CCOCC4)cc3)n2)cc1 [Compound 203, 4-ao-1-(4-(2-(4-morpholinophenylao)pyrimidin-4-ylthio)benzyl)-1H-imidazole-5-carbonitrile] | < 1
c1cc(Sc2ccc(Cn3cncn3)cc2)nc(Nc2ccc(N3CCOCC3)cc2)n1 [Compound 204, 4-(4-((1H-1,2,4-triazol-1-yl)methyl)phenylthio)-N-(4-morpholinophenyl)pyrimidin-2-ae] | < 20
NC(=O)c1ccc(Sc2ccnc(Nc3ccc(N4CCOCC4)cc3)n2)cc1 [Compound 207, 4-(2-(4-morpholinophenylao)pyrimidin-4-ylthio)benzamide] | > 20
N#CCc1ccc(Sc2ccnc(Nc3ccc(N4CCOCC4)cc3)n2)cc1 [Compound 210, 2-(4-(2-(4-morpholinophenylao)pyrimidin-4-ylthio)phenyl)acetonitrile] | > 20
Cc1cnc(Nc2ccc(N3CCOCC3)cc2)nc1Sc1cccc(CO)c1 [Compound 212, (3-(5-methyl-2-(4-morpholinophenylao)pyrimidin-4-ylthio)phenyl)methanol] | > 20
CON(C)C(=O)c1ccc(Sc2nc(Nc3ccc(N4CCOCC4)cc3)ncc2C)cc1 [Compound 218, N-methoxy-N-methyl-4-(5-methyl-2-(4-morpholinophenylao)pyrimidin-4-ylthio)benzamide] | < 20
Cc1cnc(Nc2ccc(N3CCOCC3)cc2)nc1Sc1ccc(C=O)cc1 [Compound 219, 4-(5-methyl-2-(4-morpholinophenylao)pyrimidin-4-ylthio)benzaldehyde] | < 5
Cc1cnc(Nc2ccc(N3CCOCC3)cc2)nc1Sc1ccc(CO)cc1 [Compound 220, (4-(5-methyl-2-(4-morpholinophenylao)pyrimidin-4-ylthio)phenyl)methanol] | < 5
Cc1cnc(Nc2ccc(N3CCOCC3)cc2)nc1Sc1ccc(CC#N)cc1 [Compound 222, 2-(4-(5-methyl-2-(4-morpholinophenylao)pyrimidin-4-ylthio)phenyl)acetonitrile] | > 20
Cc1cnc(Nc2ccc(N3CCOCC3)cc2)nc1Sc1ccc(C(C#N)N2CCOCC2)cc1 (stereo not shown) [Compound 223, 2-(4-(5-methyl-2-(4-morpholinophenylao)pyrimidin-4-ylthio)phenyl)-2-morpholinoacetonitrile] | < 20
Cc1cnc(Nc2ccc(N3CCOCC3)cc2)nc1Sc1ccc(C(=O)N2CCCC2)cc1 [Compound 224, (4-(5-methyl-2-(4-morpholinophenylao)pyrimidin-4-ylthio)phenyl)(pyrrolidin-1-yl)methanone] | > 20
Cc1cnc(Nc2ccc(N3CCOCC3)cc2)nc1Sc1ccc(C(C#N)N2CCN(C)CC2)cc1 (stereo not shown) [Compound 225, 2-(4-(5-methyl-2-(4-morpholinophenylao)pyrimidin-4-ylthio)phenyl)-2-(4-methylpiperazin-1-yl)acetonitrile] | < 5
Cc1cnc(Nc2cccc(NS(C)(=O)=O)c2)nc1Sc1ccc(CO)cc1 [Compound 226, N-(3-(4-(4-(hydroxymethyl)phenylthio)-5-methylpyrimidin-2-ylao)phenyl)methanesulfonamide] | < 5
Cc1cnc(Nc2ccc(N3CCOCC3)cc2)nc1Sc1ccc(NC2CCOC2=O)cc1 (stereo not shown) [Compound 228, 3-(4-(5-methyl-2-(4-morpholinophenylao)pyrimidin-4-ylthio)phenylao)dihydrofuran-2(3H)-one] | > 20
Cc1cnc(Nc2ccc(N3CCOCC3)cc2)nc1Sc1ccc(NC(=O)CO)cc1 [Compound 229, 2-hydroxy-N-(4-(5-methyl-2-(4-morpholinophenylao)pyrimidin-4-ylthio)phenyl)acetamide] | < 20
